Laboratory results from patent US20240398771A1, “TREATMENT OF SCLERODERMA AND RAYNAUD'S SYNDROME” (Aisa Pharma, Inc., priority 2023, published 2024).

How the values were obtained:
[1] = test system: participants with SSc-RP; experiment: Average duration of weekly RP attacks, all attacks (minutes); type: in vivo, human
Text: (§1) The relevant metrics measured by this tool daily are: • Study medication • SSc-RP symptoms (Reporting an attack including duration of attack) • Severity of the attack considering all symptoms of the attack e.g. tingling, numbness, pain, color changes (VAS 0-10 cm scale) • Participant's location at the time of the attack (inside home/outside home) • Selecting symptoms experienced during the attack (tingling, numbness, pain, color changes, other) • Pain rating during the attack (11-point Likert scale) • The RCS based on how much difficulty participants had with Raynaud's today, how many attacks the participant had, and how long they lasted. Participants will also be asked to consider how much pain, numbness, or other symptoms the Raynaud's caused in fingers (including painful sores), and how much the Raynaud's alone affected the use of hands today (VAS 0-10 cm scale).
The absolute change in average duration of weekly RP attacks from baseline to the end of each dosing period was and will be a secondary outcome variable. The sponsor-developed participant-informed diary was and will be used to record data. Average duration of weekly RP attacks is defined as the total duration of RP attacks divided by total number of RP attacks within the last 7 days of each dosing period. Total duration of RP attacks during the last 7 days of screening period divided by the total number of RP attacks will be used as baseline for the analysis of all periods. The variable will be calculated similar to frequency data as before.

[2] = test system: participants with SSc-RP; experiment: Average daily Raynaud's Condition Score (RCS); type: in vivo, human; set-up: key to Average Daily RCS: Baseline, Mean / Average Daily RCS: Baseline, Median: daily RCS on VAS 0-10 cm scale; details: Tadalafil 5 mg; ITT Part A
Text: as §1
The RCS is based on how much difficulty participants had with Raynaud's today, how many attacks the participant had, and how long they lasted. In addition participants were and will be asked to consider how much pain, numbness, or other symptoms the Raynaud's caused in fingers (including painful sores), and how much the Raynaud's along affected the use of hand today (VAS 0-10 cm scale).
The absolute change in average daily RCS from baseline to the end of each dosing period was and will be a secondary outcome variable. The sponsor-developed participant-informed diary has been and will be used to record data. The average daily RCS is defined as the total RCS divided by the number of days with available diary data of each dosing period. Total RCS during screening period divided by the number of days with available data will be used as baseline for the analysis of all periods. If there are multiple daily RCS scores, the latest daily RCS will be used. The variable will be calculated similar to frequency data as before.

[3] = Excluding Outliers, ITT Population - Part A (Table B-6), last 7 days of dosing period
[4] = Excluding Outliers, ITT Population - Part A (Table B-6), last 7 days of screening period
[5] = ITT Population - Part A (Table B-5), last 7 days of dosing period
[6] = ITT Population - Part A (Table B-5), last 7 days of screening period

CN1CC(=O)N2[C@H](c3ccc4c(c3)OCO4)c3[nH]c4ccccc4c3C[C@@H]2C1=O [Tadalafil]
Average Duration of weekly RP attacks (All Attacks), Max [1, 3]: 5.9, 5.9 minutes
Average Duration of weekly RP attacks (All Attacks), Min [1, 3]: 5.9, 5.9 minutes
Average Duration of weekly RP attacks (All Attacks), Q1 [1, 3]: 5.95, 5.95 minutes
Average duration of weekly RP attacks (All Attacks), Change from Baseline, Max [1, 3]: −5.0, −5.0 minutes
Average duration of weekly RP attacks (All Attacks), Change from Baseline, Min [1, 3]: −5.0, −5.0 minutes
Average duration of weekly RP attacks (All Attacks), Percent Change from Baseline, Max [1, 3]: −45.6, −45.6%
Average duration of weekly RP attacks (All Attacks), Percent Change from Baseline, Min [1, 3]: −45.6, −45.6%
Average duration of weekly RP attacks (All Attacks), Baseline, Max [1, 4]: 10.9, 10.9 minutes
Average duration of weekly RP attacks (All Attacks), Baseline, Min [1, 4]: 10.9, 10.9 minutes
Average duration of weekly RP attacks (All Attacks), Baseline, Q1 [1, 4]: 10.92, 10.92 minutes
Average duration of weekly RP attacks (All Attacks), Baseline, Q3 [1, 4]: 10.92, 10.92 minutes
Average Duration of weekly RP attacks (All Attacks) [1, 5]: 5.9 min
Average Duration of weekly RP attacks (All Attacks), Max [1, 5]: 818.6 min
Average Duration of weekly RP attacks (All Attacks), Q1 [1, 5]: 5.95 min
Average Duration of weekly RP attacks (All Attacks), Q3 [1, 5]: 818.57 min
Average duration of weekly RP attacks (All Attacks), Change from Baseline [1, 5]: -5.0 min
Average duration of weekly RP attacks (All Attacks), Change from Baseline, Max [1, 5]: 188.6 min
Average duration of weekly RP attacks (All Attacks), Change from Baseline, Mean [1, 5]: 91.80 min
Average duration of weekly RP attacks (All Attacks), Change from Baseline, Median [1, 5]: 91.80 min
Average duration of weekly RP attacks (All Attacks), Change from Baseline, Q3 [1, 5]: 188.57 min
Average duration of weekly RP attacks (All Attacks), Percent Change from Baseline, Max [1, 5]: 29.9%
Average duration of weekly RP attacks (All Attacks), Percent Change from Baseline, Mean [1, 5]: −7.81%
Average duration of weekly RP attacks (All Attacks), Percent Change from Baseline, Median [1, 5]: −7.81%
Average duration of weekly RP attacks (All Attacks), Percent Change from Baseline, Min [1, 5]: −45.6%
Average duration of weekly RP attacks (All Attacks), Percent Change from Baseline, Q3 [1, 5]: 29.93%
Average duration of weekly RP attacks (All Attacks), Baseline [1, 6]: 10.9 min
Average duration of weekly RP attacks (All Attacks), Baseline, Max [1, 6]: 630.0 min
Average duration of weekly RP attacks (All Attacks), Baseline, Q1 [1, 6]: 10.92 min
Average duration of weekly RP attacks (All Attacks), Baseline, Q3 [1, 6]: 630.00 min
Average Daily RCS: Baseline, Mean [2]: 7.72
Average Daily RCS: Baseline, Median [2]: 7.72
